Values quoted from earlier work in publication PMC3249774 (Research in Pharmaceutical Sciences, 2011).

Test system: neuroblastoma cells
Settings: cells treated with DFO

In the case of `CC(=O)N(O)CCCCCNC(=O)CCC(=O)N(O)CCCCCNC(=O)CCC(=O)N(O)CCCCCN` [DFO], the “Sensitivity of neuroblastoma cells relative to normal bone marrow cells” value is given as 10 fold.
